Here are results for 30 molecules from ChEMBL document CHEMBL3804790, “Fragment-Based Approaches to the Development of Mycobacterium tuberculosis CYP121 Inhibitors” (J Med Chem, 2016).

Data set [1] has as its target T1, Mycocyclosin synthase (Mycobacterium tuberculosis, UniProt P9WPP7).
T1 sequence (P9WPP7 whole entry): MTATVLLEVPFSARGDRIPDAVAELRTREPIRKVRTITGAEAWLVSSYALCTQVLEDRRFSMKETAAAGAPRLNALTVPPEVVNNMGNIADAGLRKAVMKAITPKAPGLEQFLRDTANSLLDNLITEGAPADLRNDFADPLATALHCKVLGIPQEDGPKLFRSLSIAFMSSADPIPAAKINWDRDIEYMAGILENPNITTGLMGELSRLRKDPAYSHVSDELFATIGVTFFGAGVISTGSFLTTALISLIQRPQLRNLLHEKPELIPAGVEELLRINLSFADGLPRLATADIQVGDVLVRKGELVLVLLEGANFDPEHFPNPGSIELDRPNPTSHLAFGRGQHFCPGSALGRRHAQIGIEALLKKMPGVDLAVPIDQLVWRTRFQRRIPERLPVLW
More on the design: species or system C41(DE3).

Data set [2] deals with T1, Mycocyclosin synthase. On the set-up: species or system C41(DE3). The source holds these as a separate data set.
The subject of data set [3] is Mycobacterium tuberculosis. Put plainly: Antimycobacterial activity against Mycobacterium tuberculosis H37Rv assessed as bacterial growth inhibition after 2 weeks. Format: functional. Particulars: 336 h.
A short description of data set [4]: Inhibition of CYP1A1/CYP1A2 in human liver microsomes using ethoxyresorufin as substrate by fluorescence analysis. Format: ADME. In general terms: Liver microsomes are vesicles of endoplasmic reticulum, rich in cytochrome P450 enzymes.
Data set [5] addresses Cytochrome P450 2C9 (Homo sapiens, UniProt P11712). Put plainly: Inhibition of CYP2C9 in human liver microsomes using tolbutamide as substrate by LC-MS/MS analysis. Format: ADME.
The target of data set [6] is Cytochrome P450 2C19 (Homo sapiens, UniProt P33261). In words: Inhibition of CYP2C19 in human liver microsomes using mephenytoin as substrate by LC-MS/MS analysis. Format: ADME.
Data set [7] concerns the target Cytochrome P450 2D6 (Homo sapiens, UniProt P10635). Put plainly: Inhibition of CYP2D6 in human liver microsomes using dextromethorphan as substrate by LC-MS/MS analysis. It is filed as ADME.
In data set [8] the target is Cytochrome P450 3A4 (Homo sapiens, UniProt P08684).
Description: Inhibition of CYP3A4 in human liver microsomes using midazolam as substrate by LC-MS/MS analysis
Data set [9] deals with T2, Methyl-branched lipid omega-hydroxylase (Mycobacterium tuberculosis (strain ATCC 25618 / H37Rv), UniProt P9WPP3).
T2 sequence (P9WPP3 whole entry): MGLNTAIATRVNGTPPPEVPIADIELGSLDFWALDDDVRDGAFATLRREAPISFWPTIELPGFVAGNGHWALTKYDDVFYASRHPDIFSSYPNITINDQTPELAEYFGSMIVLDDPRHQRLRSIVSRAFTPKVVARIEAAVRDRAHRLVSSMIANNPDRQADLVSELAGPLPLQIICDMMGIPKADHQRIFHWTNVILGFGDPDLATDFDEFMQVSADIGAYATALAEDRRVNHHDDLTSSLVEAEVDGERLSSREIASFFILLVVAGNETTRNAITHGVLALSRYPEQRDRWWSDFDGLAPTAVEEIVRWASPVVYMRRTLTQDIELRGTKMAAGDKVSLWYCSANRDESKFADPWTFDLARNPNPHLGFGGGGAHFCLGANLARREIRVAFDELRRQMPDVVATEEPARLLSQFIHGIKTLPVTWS
More on the design: species or system C41(DE3).

For data set [10], the target named is T3, Steroid C26-monooxygenase (Mycobacterium tuberculosis, UniProt P9WPP1).
T3 sequence (P9WPP1 whole entry): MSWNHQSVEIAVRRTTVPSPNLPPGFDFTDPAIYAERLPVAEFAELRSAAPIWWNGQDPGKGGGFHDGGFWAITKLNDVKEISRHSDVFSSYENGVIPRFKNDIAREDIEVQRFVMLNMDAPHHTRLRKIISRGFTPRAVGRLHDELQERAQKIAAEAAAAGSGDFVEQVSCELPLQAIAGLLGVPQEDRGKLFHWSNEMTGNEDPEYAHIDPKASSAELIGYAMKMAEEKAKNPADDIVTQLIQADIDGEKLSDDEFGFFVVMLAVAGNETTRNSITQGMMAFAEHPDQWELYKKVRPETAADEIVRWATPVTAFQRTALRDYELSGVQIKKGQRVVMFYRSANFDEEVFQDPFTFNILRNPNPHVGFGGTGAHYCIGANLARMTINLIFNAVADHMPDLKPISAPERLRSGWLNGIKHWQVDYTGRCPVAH
On the set-up: species or system C41(DE3).

Data set [11] relates to CYP1A (relative to Mycobacterium tuberculosis CYP121). Put plainly: in vitro. The following applies: human, c41(de3).
Description: Selectivity ratio of IC50 for human CYP1A to Kd for Mycobacterium tuberculosis His6-tagged CYP121 expressed in Escherichia coli C41 (DE3) cells

Chain of Cytochrome P450 2C9 (P11712 whole entry): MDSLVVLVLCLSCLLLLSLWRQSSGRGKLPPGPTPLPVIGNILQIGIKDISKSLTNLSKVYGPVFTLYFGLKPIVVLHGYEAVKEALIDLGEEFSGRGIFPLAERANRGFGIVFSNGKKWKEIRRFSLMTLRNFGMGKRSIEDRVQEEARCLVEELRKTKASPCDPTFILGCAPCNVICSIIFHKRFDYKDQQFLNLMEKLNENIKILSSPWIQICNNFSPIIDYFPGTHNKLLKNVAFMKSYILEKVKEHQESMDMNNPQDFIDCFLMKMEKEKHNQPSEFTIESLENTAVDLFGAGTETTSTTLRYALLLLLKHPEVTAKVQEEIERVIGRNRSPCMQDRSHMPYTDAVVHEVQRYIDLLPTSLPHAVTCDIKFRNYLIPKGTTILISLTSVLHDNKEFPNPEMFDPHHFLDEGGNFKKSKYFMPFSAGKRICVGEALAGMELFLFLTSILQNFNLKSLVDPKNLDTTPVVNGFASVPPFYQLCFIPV
Chain of Cytochrome P450 2D6 (P10635 whole entry): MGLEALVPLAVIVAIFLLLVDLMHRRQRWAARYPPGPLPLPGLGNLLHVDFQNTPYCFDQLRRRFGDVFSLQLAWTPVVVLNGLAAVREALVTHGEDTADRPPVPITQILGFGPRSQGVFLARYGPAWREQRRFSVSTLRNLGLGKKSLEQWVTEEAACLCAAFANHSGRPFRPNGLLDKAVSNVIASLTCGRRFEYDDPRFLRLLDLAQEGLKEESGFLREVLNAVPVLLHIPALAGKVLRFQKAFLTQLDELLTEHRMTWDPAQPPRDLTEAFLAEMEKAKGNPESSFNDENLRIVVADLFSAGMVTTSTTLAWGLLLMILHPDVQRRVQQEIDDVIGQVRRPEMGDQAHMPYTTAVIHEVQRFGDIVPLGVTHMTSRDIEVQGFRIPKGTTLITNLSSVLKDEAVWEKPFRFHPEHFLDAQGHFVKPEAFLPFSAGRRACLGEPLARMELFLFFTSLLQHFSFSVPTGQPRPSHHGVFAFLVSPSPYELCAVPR
Chain of Cytochrome P450 2C19 (P33261 whole entry): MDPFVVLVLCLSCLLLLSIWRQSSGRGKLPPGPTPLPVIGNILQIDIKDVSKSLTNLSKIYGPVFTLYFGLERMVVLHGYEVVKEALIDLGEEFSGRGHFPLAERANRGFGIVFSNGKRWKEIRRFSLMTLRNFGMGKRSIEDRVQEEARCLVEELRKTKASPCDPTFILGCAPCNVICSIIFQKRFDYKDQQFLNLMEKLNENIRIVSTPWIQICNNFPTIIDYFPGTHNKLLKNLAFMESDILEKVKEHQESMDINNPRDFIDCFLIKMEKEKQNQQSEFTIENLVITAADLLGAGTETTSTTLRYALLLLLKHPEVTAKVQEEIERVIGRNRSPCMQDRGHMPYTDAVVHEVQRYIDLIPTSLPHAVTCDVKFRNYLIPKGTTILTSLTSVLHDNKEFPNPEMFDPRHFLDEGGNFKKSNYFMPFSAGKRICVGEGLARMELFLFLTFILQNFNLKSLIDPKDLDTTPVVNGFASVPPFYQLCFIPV
Chain of Cytochrome P450 3A4 (P08684 whole entry): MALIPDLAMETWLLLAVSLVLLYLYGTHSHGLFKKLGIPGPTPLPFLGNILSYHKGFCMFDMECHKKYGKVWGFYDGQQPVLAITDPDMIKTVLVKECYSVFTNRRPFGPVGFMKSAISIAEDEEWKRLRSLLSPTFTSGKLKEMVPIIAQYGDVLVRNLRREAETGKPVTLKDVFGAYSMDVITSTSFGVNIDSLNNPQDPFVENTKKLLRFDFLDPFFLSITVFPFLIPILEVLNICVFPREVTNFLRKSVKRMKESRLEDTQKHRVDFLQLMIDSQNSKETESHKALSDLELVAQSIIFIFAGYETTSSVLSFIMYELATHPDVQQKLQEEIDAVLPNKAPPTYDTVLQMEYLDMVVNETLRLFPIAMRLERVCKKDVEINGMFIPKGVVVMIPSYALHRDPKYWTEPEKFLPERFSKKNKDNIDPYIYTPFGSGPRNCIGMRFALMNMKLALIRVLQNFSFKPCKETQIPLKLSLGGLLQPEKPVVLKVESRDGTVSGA

Usually Kd stands for the concentration at which binding is half-saturated. Turning to `Cc1ccc2cc(N)ccc2n1`, the Kd in data set [1] (read-out: Kd) was 400 µM.
Still for that read-out and setting: in the case of `Oc1ccc(Nc2[nH]nc(-c3ccc(O)cc3)c2-c2ccc(O)cc2)cc1` it was 15 µM; in that of `Nc1cccc(Cn2cncn2)c1`, 1600 µM.
The same measure, in the same setting: in the case of `COc1ccc(-c2cn[nH]c2N)cc1-c1cccc(N)c1` it was 68 µM; in that of `NC(=O)c1cc(Cl)ccc1N`, 3400 µM.
The same measure, in the same setting: in the case of `Nc1cccc(-c2cc(-c3cn[nH]c3N)ccc2OCc2ccccc2)c1` it was 28 µM.
One may read the MIC90 as an inhibitory concentration at the 90% level, which refers to growth in some studies and to a panel of isolates in others. Take `COc1ccc(-c2n[nH]c(N)c2-c2cccc(-c3cccc(N)c3)c2)cc1`: the dissociation constant (Kd) result in data set [1] (c41(de3)) was “ND(Insoluble)”; in [2], 0.034 µM. The MIC90 in data set [3] was at least 50 µM.
Regarding `Nc1cc(-c2ccc(O)cc2)n[nH]1`, the dissociation constant Kd in data set [1] (read-out: Kd) is 1300 µM.
`Nc1cccc(-c2cc(-c3c(-c4ccc(O)cc4)n[nH]c3N)ccc2O)c1`: the MIC90 in data set [3] is at least 50 µM.
As to `O=C(Nc1[nH]nc(-c2ccc(O)cc2)c1-c1ccc(O)cc1)c1ccncc1`, the Kd in [1] (read-out: Kd) worked out at 600 µM.
One may read the IC50 as the concentration that gives 50% inhibition. A lower IC50 goes with inhibition by little substance. Turning to `Oc1ccc(CNc2[nH]nc(-c3ccc(O)cc3)c2-c2ccc(O)cc2)cc1`, the equilibrium dissociation constant (Kd) in data set [1] (read-out: Kd) is 6.3 µM. Also, the IC50 in data set [4], in data set [5], in [6], in [7] and in data set [8] was above 25 µM throughout. Also, the MIC90 in [3] is at least 50 µM.
For the molecule `Nc1[nH]nc(-c2cccc(O)c2)c1-c1ccc(O)cc1`, the Kd in data set [1] (read-out: Kd) was determined as 60 µM.
As for `Oc1ccc(-c2n[nH]c(NCc3c[nH]cn3)c2-c2ccc(O)cc2)cc1`, the Kd in data set [1] (read-out: Kd) was found to be 275 µM.
On to `Nc1[nH]nc(-c2ccc(O)cc2)c1-c1ccc(O)cc1`, for which the equilibrium dissociation constant (Kd) in [1] (read-out: Kd) was found to be 40 µM. Besides, the MIC90 in data set [3] was at least 50 µM.
`Oc1ccc(-c2n[nH]c(NCc3ccco3)c2-c2ccc(O)cc2)cc1`: the Kd in [1] (read-out: Kd) was 24 µM.
Consider `Oc1ccc(-c2n[nH]c(NCc3ccc(O)c(Br)c3)c2-c2ccc(O)cc2)cc1`, for which the equilibrium dissociation constant (Kd) in data set [1] (read-out: Kd) was found to be 19 µM.
The same measure, in the same setting: to `Oc1ccc(-c2n[nH]c(NCc3ccsc3)c2-c2ccc(O)cc2)cc1` belongs 18 µM.
The same measure, in the same setting: to `O=C(Nc1[nH]nc(-c2ccc(O)cc2)c1-c1ccc(O)cc1)c1ccc(O)cc1` belongs 78 µM; to `Nc1[nH]nc(-c2cccc(F)c2)c1-c1ccc(O)cc1`, 252 µM; to `Oc1ccc(Nc2cc(-c3ccc(O)cc3)[nH]n2)cc1`, 10.6 µM.
On the same count and under the same terms, in the case of `Nc1[nH]nc(-c2ccc(O)cc2O)c1-c1ccc(O)cc1` it was 181 µM; in that of `Oc1ccc(-n2cncn2)cc1`, 1700 µM; in that of `Oc1ccc(-c2n[nH]c(NCc3ccc4[nH]ccc4c3)c2-c2ccc(O)cc2)cc1`, 60 µM.
On to `Oc1ccc(-c2n[nH]c(NCc3ccncc3)c2-c2ccc(O)cc2)cc1`, for which the equilibrium dissociation constant (Kd) in data set [1] (read-out: Kd) was 240 µM.
The same measure, in the same setting: in the case of `Nc1[nH]ncc1-c1ccc(O)cc1` it was 1870 µM.
In the case of `Nc1cccc(-c2cccc(-c3c(-c4ccc(O)cc4)n[nH]c3N)c2)c1`, the Kd was found to be 0.74 µM in [1] (read-out: Kd), 0.015 µM in data set [2], 0.86 µM in data set [9] and 18.4 µM in [10]. The half-maximal inhibitory concentration (IC50) in [4] was 21.4 µM; in data set [5], above 25 µM; in data set [6], above 25 µM; in [7], above 25 µM; in data set [8], 11.3 µM. Moreover, the MIC90 in data set [3] was at least 50 µM. The selectivity ratio in data set [11] is 1430.
As to `Nc1cccc(-c2cccc(-c3cn[nH]c3N)c2)c1`, the results for the dissociation constant Kd in data set [1] (read-out: Kd) and in data set [2] were 140 µM and 14 µM, respectively. Besides, the 50% inhibitory concentration (IC50) in data set [4] was 1.22 µM; in data set [5], above 25 µM; in data set [6], above 25 µM; in data set [7] it was above 25 µM; in [8] it was above 25 µM. For the same molecule, the MIC90 in [3] was at least 50 µM. Moreover, in data set [11], the selectivity ratio came out at 0.09.
`Nc1ccc(-c2cccc(-c3cn[nH]c3N)c2)cc1`: in data set [2], the affinity, expressed as Kd, was 230 µM.
As to `Oc1ccc(-c2n[nH]c(NCc3cccc4[nH]ncc34)c2-c2ccc(O)cc2)cc1`, the dissociation constant Kd in data set [1] (read-out: Kd) turned out to be 45 µM.
Same read-out and setting: in the case of `O=C(Nc1[nH]nc(-c2ccc(O)cc2)c1-c1ccc(O)cc1)c1ccccc1` it was 160 µM.
